Read-outs that look alike come from different tables or passages of the source. Non-standard residues stand in square brackets, D forms with d. Residues, ends and D or L forms follow the SMILES beside them. No end group written: not given here.
Key:
[1] = test system: tumor cells; test: Antitumor activity of RebMab 200 CDR peptides; assay type: cell-based
From the text: (§1) Details of the in vitro tumor cell growth, cytotoxicity tests, determination of viable cells and in vivo protection experiments with B16F10 cells in a mouse metastatic model are described in Polonelli et al. (PLoS One. 3(6):e2371, 2008) and Dobroff et al. (Translat. Onc., 3: 204-217, 2010).
Amidated RebMab 200 CDR H2 (SEQ ID NO: 7) shares up to sixteen (16) identical amino acids with similar H2 fragments from several murine antibodies of various specificities.

[2] = Peptide degradation by human plasma (HPLC / mass spectrum); assay type: in vitro ADME; details: human plasma, 37° C.
Method: Peptides have variable half lives in the plasma due to the proteolytic activity and the renal filtration, which are relevant aspects in the pharmacokinetics of drug candidates.
To analyze the peptide in HPLC and Mass Spectrum, an aliquot of 200 μL was transferred to a new Eppendorf tube and proteins were precipitated with 20 μL trifluoroacetic acid for 5 minutes at 4° C. After centrifugation for 10 minutes at 14,000 rpm, the supernatant was analyzed in an LC/ESI-MS (Waters).
Regarding assays for determining time-lapse plasma degradation of RB9 peptide, peptide degradation by human plasma was monitored in HPLC and Mass spectra every 30 minutes as described above (FIG. 12). About 50% RB9 was cleaved after 2 hours of incubation at 37° C.

[3] = test system: B16F10-Nex2 melanoma cells; test: In vivo protection against lung colonization (metastatic melanoma model); design: species or system C57B1/6 mice; details: 250 μg i.p. on days 1, 3, 5, 7, 9, 11; lungs after 22 days
Method: as §1
Peptides RB9 and RB10 along with the apoptotic peptide A4H3, a true microantibody of cytotoxic anti-melanoma mAb (A4) (Dobroff et al., Translat. Onc., 3: 204-217, 2010), were tested for their protective effects against lung colonization by B16F10-Nex2 melanoma cells (2×105) injected intravenously in C57B1/6 mice (6 animals/group). Peptides were intraperitoneally administered (250 μg i.p.) on days 1, 3, 5, 7, 9, 11 after tumor cell challenge. Lungs of peptide-treated animals are shown in FIG. 5 after 22 days of tumor challenge. As noticed, peptide treatment was interrupted 10 days before animal sacrifice.
In vivo protection by peptides RB9 and RB10 (and A4H3 control) against lung colonization by B16F10-Nex2 melanoma cells (2×105) injected intravenously in C57B1/6 mice (6 animals/group) is shown in FIG. 6. The other 5 CDRs of RebMab200 (SEQ ID NOs: 7, 10, 11, 12, 13) were unprotective in vivo. Peptides were administered in the same way as described above, and the number of lung nodules was determined.

[4] = test system: human glioblastoma U87 cells; test: Cell migration, wound healing assay; assay type: cell-based; details: peptide 500 μM, 24 hours
Method: (§2) For the migration studies, 5×10^5 or 10^6 cells were distributed on 6-well plates and let them to adhere for 2 hours at 37° C./5% CO2. The culture medium was changed and the peptide was added at 500 μM overnight. The cell monolayer was “wounded” with a P1000 tip and incubated for 24 hours. Images of untreated cells (control) and peptide treated cells were captured with a JENOPTIK camera. Cell numbers (nuclei) were determined using the Pixcavator software version 5.0.

[5] = test system: human cervix cancer HeLa cells; test: Cell migration, wound healing assay; assay type: cell-based; details: peptide 500 μM, 24 hours
Method: as §2

[6] = test system: human cervix cancer SiHa cells; test: Cell migration, wound healing assay; assay type: cell-based; details: peptide 500 μM, 24 hours
Method: as §2

[7] = test system: B16F10-Nex2 melanoma cells; test: Cell migration, wound healing assay; assay type: cell-based, murine; details: peptide 500 μM, 24 hours after wounding
Method: as §2
Viable B16F10-Nex2 cells (5×105)/well were distributed on a 6-well culture plate and incubated overnight at 37° C. in a humidified chamber with 5% CO2. A P1000 tip was used for wounding the cell monolayer and the image was immediately captured (0 hour) using a camera (Jenoptik) with the software Progres 2.8. After 24 hours a new image of the same field was obtained and recorded (24 hours).
Viable B16F10-Nex2 cells (3×10^5)/well were distributed in a 12-well culture plate and incubated for 4 hours at 37° C. in a humidified chamber with 5% CO2. Fresh medium containing RB10 (SEQ ID NO: 9) at different concentrations was added to the wells and incubated again for 4 hours. The monolayer wounding was performed as described above in Example 12, and images obtained accordingly. After 24 hours a new image in the same field was obtained and recorded (24 hours). […] Magnification ×100.

[8] = test system: tumor cells; test: Cell adherence assay (detachment with trypsin/EDTA); assay type: cell-based
Method: At a lower dose, cells would be detached with trypsin/EDTA at rates inversely proportional to the peptide concentration. Conceivably, peptides RB9 and RB10 affected the cytoskeleton dynamics of cells, thus signaling increased cell adhesion.
B16F10-Nex2.1 cells (5×10^3) and U87-MG cells (1×10^4) were cultivated in 96-well plates and incubated with different concentrations of RB9 (SEQ ID NO: 8) and RB10 (SEQ ID NO: 9) from 0.01 to 1 mM (i.e., 0.01, 0.05, 0.1, 0.25, 0.7, 0.8 and 1 mM of RB9 and RB10 for B16F10-Nex 2.1 cells; and 0.25, 0.5, 0.75 and 1 mM of RB9 and RB10 for U87-MG cells). After 18 hours incubation, viable cells detached with trypsin/EDTA were counted using Trypan blue exclusion staining. All assays were performed in triplicate in two independent experiments.
SKBR3 cells (1×10^4) were cultivated in 96-well plates and incubated with RB9 (SEQ ID NO: 8) and RB10 (SEQ ID NO: 9). After 18 hours incubation, viable cells detached with trypsin/EDTA were counted using Trypan blue exclusion staining. Assays were performed in triplicate in two independent experiments. The A2058 human melanoma cells (1×10^4) were incubated for 4 hours at 37° C. in a humidified chamber with 5% CO2. Fresh media containing different peptide concentrations of RB9 and RB10 ranging from 0 to 1 mM (i.e., 0, 0.25, 0.5 and 1 mM) was added to the wells and incubated for 24 hours. The media was then aspirated, cells were detached with 30 μl/well of trypsin-EDTA for five minutes at 37° C. and viable cells were counted in a Neubauer chamber using Trypan blue. As shown in FIGS. 2A-2D, 50% of cells were trypsin-EDTA resistant at 630 and 610 μM RB9 and RB10, respectively.

[9] = test system: melanoma B16F10-Nex2 cells; test: Alanine scanning series cell adhesion assay (MTT after trypsin-EDTA); assay type: cell-based, murine; details: 1 mM peptide, 24 hours
Method: The peptide RB10 (SEQ ID NO: 9) was engineered to replace each amino acid by alanine using Ala-scan methodology, and thus help evaluate the role of each amino acid on biological effect, specifically on the hyper-adherence observed with 1 mM peptide.
For this purpose, viable melanoma B16F10-Nex2 cells (1×10^4)/well were distributed on a 96-well culture plate and incubated for 4 hours. Fresh media containing 1 mM of the alanine-scanning series for RB10 was added and incubated for 24 hours. Treated cells were detached with 30 μl/well of trypsin-EDTA for five minutes at 37° C. and gently washed with PBS. Cells were incubated for 4 hours with 0.5 mg/mL of MTT [3-(4,5-Dimethylthiazol-2-yl)-2,5-diphenyltetrazolium bromide] in fresh media and the formazan crystals were solubilized adding 1 volume of a 10% SDS solution overnight. Intensity was measured using a plate reader at 570 nm. […] The 100% value for each peptide represented the treated cells that had not been trypsinized.

Molecule: AIYPGNGDTSYKQKFRG-NH2 [RB8, AIYPGNGDTSYKQKFRG-NH2]
- antitumor activity ([1]; listed as RBB): no antitumor activity
- antitumor activity ([1]; listed as SEQ ID NO: 7): no antitumor effect
- half-life [2]: < 1 h
- protection against lung colonization (lung nodules) [3]: unprotective

Molecule: C[C@H](NC(=O)[C@H](CCCNC(=N)N)NC(=O)[C@H](C)NC(=O)[C@@H](NC(=O)[C@H](CCC(=O)O)NC(=O)CNC(=O)[C@H](CCCNC(=N)N)NC(=O)[C@@H](C)NC(=O)[C@@H](N)CS)[C@@H](C)O)C(=O)N[C@H](C(=O)N[C@@H](Cc1ccccc1)C(=O)N[C@@H](C)C(=O)N[C@@H](Cc1ccc(O)cc1)C(=O)N[C@@H](Cc1c[nH]c2ccccc12)C(=O)NCC(=O)N[C@@H](CCC(N)=O)C(=O)NCC(N)=O)[C@@H](C)O [RB10 M3, C(dA)RGETARATFAYWGQG-NH2] (H-C[dA]RGETARATFAYWGQG-NH2; N-terminus assumed)
- inhibition of cell migration [4]: partial inhibition
- inhibition of cell migration ([4]; listed as RB10M3): partial migration inhibition
- inhibition of cell migration [5]: almost complete inhibition
- inhibition of cell migration ([5]; listed as RB10M3): complete or almost complete inhibition
- inhibition of cell migration [6]: almost complete inhibition
- inhibition of cell migration ([6]; listed as RB10M3): complete or almost complete inhibition
- inhibition of cell migration (words) [7]: complete inhibition
- inhibition of cell migration (words) ([7]; listed as RB10M3): Total inhibition

Molecule: CARGETARATFAYWGQG (Sequence of CDR H3 from RebMab 200 (huMX35), obtainable by a known method) [RB10a]
- adherence at peptide concentration of 1 mM (not suspended by trypsin/EDTA) ([8]; 1 mM peptide): hyper-adherence
- adherence of tumor cells to the substrate ([8]; 96-well plates, RPMI 10% FCS, seen in B16F10-Nex2.1, U87MG, A5028 melanoma, SKBR3, SiHa, HCT cells): dose dependent increase of adherence
- antitumor activity [1]: antitumor effects
- trypsin/EDTA-resistant cell adherence [9]: high trypsin/EDTA-resistant cell adherence
